Experimental data published in US20230111310A1, “CARBOXYLIC ACID DERIVATIVE-SUBSTITUTED IMINO ARYL COMPOUND, PREPARATION METHOD THEREFOR, HERBICIDAL COMPOSITION AND USE THEREOF” (Qingdao Kingagroot Chemical Compound Co., Ltd., priority 2020, published 2023).

Experiments:
Assay in all cases: Weeding effect in post-emergence stage
Assay type in all cases: in vivo
Conditions in all cases: Dose 15 g/ha; level of fresh weight growth control rate
[1] = tested on: Abutilon theophrasti
In short: (§1)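 Post-emergence spray tower; 2-3 leaf plants (2 wk after sowing, soil pots, greenhouse). Formulation: acetone, Tween 80, methyl oleate EC 1.5 liter/ha as synergist, water. Rates 500–7.5 g/ha. Growth control rate read at 3 wk; n=3, averaged.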

[2] = tested on: Alopecurus japonicus
In short: as §1

[3] = tested on: Digitaria sanguinalis
In short: as §1

[4] = tested on: Eleusine indica
In short: as §1

[5] = tested on: Setaria viridis
In short: as §1

[6] = tested on: Echinochloa crusgalli
In short: as §1

SMILES | Weeding effect in post-emergence stage, Abutilon theophrasti [1] | Weeding effect in post-emergence stage, Alopecurus japonicus [2] | Weeding effect in post-emergence stage, Digitaria sanguinalis [3] | Weeding effect in post-emergence stage, Eleusine indica [4] | Weeding effect in post-emergence stage, Setaria viridis [5] | Weeding effect in post-emergence stage, Echinochloa crusgalli [6]
CCCCCCOC(=O)C(C)O/N=C/c1cc(-n2c(=O)cc(C(F)(F)F)n(C)c2=O)c(F)cc1Cl (racemic) [Compound 204] | 5 (Level 5: growth control rate is above 85%) | 5 (Level 5: growth control rate is above 85%) | 5 (Level 5: growth control rate is above 85%) | 5 (Level 5: growth control rate is above 85%) | 5 (Level 5: growth control rate is above 85%) | 5 (Level 5: growth control rate is above 85%)
CCCCCCCOC(=O)C(C)O/N=C/c1cc(-n2c(=O)cc(C(F)(F)F)n(C)c2=O)c(F)cc1Cl (racemic) [Compound 205] | 5 (Level 5: growth control rate is above 85%) | 5 (Level 5: growth control rate is above 85%) | 5 (Level 5: growth control rate is above 85%) | 5 (Level 5: growth control rate is above 85%) | 5 (Level 5: growth control rate is above 85%) | 5 (Level 5: growth control rate is above 85%)
CCCCCCCCOC(=O)C(C)O/N=C/c1cc(-n2c(=O)cc(C(F)(F)F)n(C)c2=O)c(F)cc1Cl (racemic) [Compound 206] | 5 (Level 5: growth control rate is above 85%) | 5 (Level 5: growth control rate is above 85%) | 5 (Level 5: growth control rate is above 85%) | 5 (Level 5: growth control rate is above 85%) | 5 (Level 5: growth control rate is above 85%) | 5 (Level 5: growth control rate is above 85%)
CCCCCCC(C)OC(=O)C(C)O/N=C/c1cc(-n2c(=O)cc(C(F)(F)F)n(C)c2=O)c(F)cc1Cl (racemic) [Compound 207] | 5 (Level 5: growth control rate is above 85%) | 5 (Level 5: growth control rate is above 85%) | 5 (Level 5: growth control rate is above 85%) | 5 (Level 5: growth control rate is above 85%) | 5 (Level 5: growth control rate is above 85%) | 5 (Level 5: growth control rate is above 85%)
C=CCOC(=O)C(C)O/N=C/c1cc(-n2c(=O)cc(C(F)(F)F)n(C)c2=O)c(F)cc1Cl (racemic) [Compound 208] | 5 (Level 5: growth control rate is above 85%) | 5 (Level 5: growth control rate is above 85%) | 5 (Level 5: growth control rate is above 85%) | 5 (Level 5: growth control rate is above 85%) | 5 (Level 5: growth control rate is above 85%) | 5 (Level 5: growth control rate is above 85%)
C=CCCOC(=O)C(C)O/N=C/c1cc(-n2c(=O)cc(C(F)(F)F)n(C)c2=O)c(F)cc1Cl (racemic) [Compound 209] | 5 (Level 5: growth control rate is above 85%) | 5 (Level 5: growth control rate is above 85%) | 5 (Level 5: growth control rate is above 85%) | 5 (Level 5: growth control rate is above 85%) | 5 (Level 5: growth control rate is above 85%) | 5 (Level 5: growth control rate is above 85%)
C#CCOC(=O)C(C)O/N=C/c1cc(-n2c(=O)cc(C(F)(F)F)n(C)c2=O)c(F)cc1Cl (racemic) [Compound 212] | 5 (Level 5: growth control rate is above 85%) | 5 (Level 5: growth control rate is above 85%) | 5 (Level 5: growth control rate is above 85%) | 5 (Level 5: growth control rate is above 85%) | 5 (Level 5: growth control rate is above 85%) | 5 (Level 5: growth control rate is above 85%)
CC(O/N=C/c1cc(-n2c(=O)cc(C(F)(F)F)n(C)c2=O)c(F)cc1Cl)C(=O)OC1CCCC1 (racemic) [Compound 214] | 5 (Level 5: growth control rate is above 85%) | 5 (Level 5: growth control rate is above 85%) | 5 (Level 5: growth control rate is above 85%) | 5 (Level 5: growth control rate is above 85%) | 5 (Level 5: growth control rate is above 85%) | 5 (Level 5: growth control rate is above 85%)
CC(O/N=C/c1cc(-n2c(=O)cc(C(F)(F)F)n(C)c2=O)c(F)cc1Cl)C(=O)OCCF (racemic) [Compound 216] | 5 (Level 5: growth control rate is above 85%) | 4 (Level 4: growth control rate is greater than or equal to 60% and less than 85%) | 5 (Level 5: growth control rate is above 85%) | 5 (Level 5: growth control rate is above 85%) | 5 (Level 5: growth control rate is above 85%) | 5 (Level 5: growth control rate is above 85%)
CC(O/N=C/c1cc(-n2c(=O)cc(C(F)(F)F)n(C)c2=O)c(F)cc1Cl)C(=O)OCC(F)F (racemic) [Compound 217] | 5 (Level 5: growth control rate is above 85%) | 5 (Level 5: growth control rate is above 85%) | 5 (Level 5: growth control rate is above 85%) | 5 (Level 5: growth control rate is above 85%) | 5 (Level 5: growth control rate is above 85%) | 5 (Level 5: growth control rate is above 85%)
CC(O/N=C/c1cc(-n2c(=O)cc(C(F)(F)F)n(C)c2=O)c(F)cc1Cl)C(=O)OCC(F)(F)F (racemic) [Compound 218] | 5 (Level 5: growth control rate is above 85%) | 5 (Level 5: growth control rate is above 85%) | 5 (Level 5: growth control rate is above 85%) | 5 (Level 5: growth control rate is above 85%) | 5 (Level 5: growth control rate is above 85%) | 5 (Level 5: growth control rate is above 85%)
CC(O/N=C/c1cc(-n2c(=O)cc(C(F)(F)F)n(C)c2=O)c(F)cc1Cl)C(=O)OCC(C)(F)F (racemic) [Compound 220] | 5 (Level 5: growth control rate is above 85%) | 5 (Level 5: growth control rate is above 85%) | 5 (Level 5: growth control rate is above 85%) | 5 (Level 5: growth control rate is above 85%) | 5 (Level 5: growth control rate is above 85%) | 5 (Level 5: growth control rate is above 85%)
CC(O/N=C/c1cc(-n2c(=O)cc(C(F)(F)F)n(C)c2=O)c(F)cc1Cl)C(=O)OCCC(F)(F)F (racemic) [Compound 221] | 5 (Level 5: growth control rate is above 85%) | 4 (Level 4: growth control rate is greater than or equal to 60% and less than 85%) | 5 (Level 5: growth control rate is above 85%) | 5 (Level 5: growth control rate is above 85%) | 5 (Level 5: growth control rate is above 85%) | 5 (Level 5: growth control rate is above 85%)
CC(O/N=C/c1cc(-n2c(=O)cc(C(F)(F)F)n(C)c2=O)c(F)cc1Cl)C(=O)OC/C=C/Cl (racemic) [Compound 225] | 5 (Level 5: growth control rate is above 85%) | 4 (Level 4: growth control rate is greater than or equal to 60% and less than 85%) | 5 (Level 5: growth control rate is above 85%) | 5 (Level 5: growth control rate is above 85%) | 5 (Level 5: growth control rate is above 85%) | 5 (Level 5: growth control rate is above 85%)
CC(O/N=C/c1cc(-n2c(=O)cc(C(F)(F)F)n(C)c2=O)c(F)cc1Cl)C(=O)OCC#N (racemic) [Compound 226] | 5 (Level 5: growth control rate is above 85%) | 5 (Level 5: growth control rate is above 85%) | 5 (Level 5: growth control rate is above 85%) | 5 (Level 5: growth control rate is above 85%) | 5 (Level 5: growth control rate is above 85%) | 5 (Level 5: growth control rate is above 85%)
